Assay results from patent US20250145633A1, “SUBSTITUTED FURANOPYRIMIDINE COMPOUNDS AS PDE1 INHIBITORS” (Dart NeuroScience, LLC, priority 2017, published 2025).

What follows are molecules tested against human PDE1B enzyme (Homo sapiens (Human), UniProt Q01064) (assay: IMAP TR-FRET PDE1B enzymatic assay). Details: negative log of half-maximal molar inhibitory concentration; 200 nM FAM-cAMP; values given as bins.
Type: biochemical
Procedure, shortened: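 Full-length GST-tagged human PDE1B (250 pg/well) in IMAP BSA buffer with 10 U/ml calmodulin and 2.5 mM CaCl2; compound pre-incubated 5 min at room temperature, then 200 nM (final) FAM-cAMP for 30 min. IMAP binding reagent/Tb added, 1 h; TR-FRET 520/490 ratio read. IC50 from sigmoidal dose-response fit.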

Cc1oc2ncnc(NC3(C)CC3)c2c1C(=O)N1CCc2nc(C(C)(C)C)ncc2C1 [Example 41, 5-{2-tert-Butyl-5H,6H,7H,8H-pyrido[4,3-d]pyrimidine-6-carbonyl}-6-methyl-N-(1-methylcyclopropyl)furo[2,3-d]pyrimidin-4-amine] was tested, and the “PDE1b (pIC50)” value was >8.
In the case of Cc1nc(C2CCN(C(=O)c3c(C)oc4ncnc(NC5(C)CC5)c34)C2)ccc1F (stereo not shown) [Example 799, 5-[3-(5-Fluoro-6-methylpyridin-2-yl)pyrrolidine-1-carbonyl]-6-methyl-N-(1-methylcyclopropyl)furo[2,3-d]pyrimidin-4-amine], the “PDE1b (pIC50)” value is reported as >8.
COc1ccc(CNC(=O)c2c(C)oc3ncnc(NC4(C)CC4)c23)nc1 [Example 55, N-[(5-Methoxypyridin-2-yl)methyl]-6-methyl-4-[(1-methylcyclopropyl)amino]furo[2,3-d]pyrimidine-5-carboxamide] was tested, and the “PDE1b (pIC50)” value was >8.
With Cc1oc2ncnc(NC3(C)CC3)c2c1C(=O)NCc1cc(C2CC2)on1 [Example 323, N-[(5-Cyclopropyl-1,2-oxazol-3-yl)methyl]-6-methyl-4-[(1-methylcyclopropyl)amino]furo[2,3-d]pyrimidine-5-carboxamide] the “PDE1b (pIC50)” value was >8.
With Cc1oc2ncnc(NC3(C)CC3)c2c1C(=O)N1CCC(c2nccc(C3CC3)n2)CC1 [Example 368, 5-[4-(4-Cyclopropylpyrimidin-2-yl)piperidine-1-carbonyl]-6-methyl-N-(1-methylcyclopropyl)furo[2,3-d]pyrimidin-4-amine] the “PDE1b (pIC50)” value was >8.
Cc1oc2ncnc(NC3(C)CC3)c2c1C(=O)N1CCC(C)(c2ccc(F)cc2)C1 (stereo not shown) [Example 85, 5-[3-(4-Fluorophenyl)-3-methylpyrrolidine-1-carbonyl]-6-methyl-N-(1-methylcyclopropyl)furo[2,3-d]pyrimidin-4-amine] was tested, and the “PDE1b (pIC50)” value was >8.
Cc1oc2ncnc(NC3(C)CC3)c2c1C(=O)NC(C)(C)CCO [Example 135, N-(4-Hydroxy-2-methylbutan-2-yl)-6-methyl-4-[(1-methylcyclopropyl)amino]furo[2,3-d]pyrimidine-5-carboxamide] was tested, and the “PDE1b (pIC50)” value was >8.

Same assay, conditions: negative log of half-maximal molar inhibitory concentration; 200 nM FAM-cAMP; values given as bins; read-out: PDE1b (pIC50) (converted)

Cc1oc2ncnc(NC3(C)CC3)c2c1C(=O)N1Cc2cc(Br)cnc2C1 [Example 742, 5-{3-Bromo-5H,6H,7H-pyrrolo[3,4-b]pyridine-6-carbonyl}-6-methyl-N-(1-methylcyclopropyl)furo[2,3-d]pyrimidin-4-amine] and Cc1ncnc2c1CCN(C(=O)c1c(C)oc3ncnc(NC4(C)CC4)c13)C2 [Example 455, 6-Methyl-5-f{4-methyl-5H,6H,7H,8H-pyrido[3,4-d]pyrimidine-7-carbonyl}-N-(1-methylcyclopropyl)furo[2,3-d]pyrimidin-4-amine] fall in the same range of IC50: 10 to 100 nM for the first, 10 to 100 nM for the second.

COc1cccc(CNC(=O)c2c(C)oc3ncnc(NC4(C)CC4)c23)c1 [Example 246, N-[(3-Methoxyphenyl)methyl]-6-methyl-4-[(1-methylcyclopropyl)amino]furo[2,3-d]pyrimidine-5-carboxamide] and COc1cc(CNC(=O)c2c(C)oc3ncnc(NC4(C)CC4)c23)ccc1O [Example 487, N-[(4-Hydroxy-3-methoxyphenyl)methyl]-6-methyl-4-[(1-methylcyclopropyl)amino]furo[2,3-d]pyrimidine-5-carboxamide] fall in the same range of IC50: 10 to 100 nM for the first, 10 to 100 nM for the second.

Cc1oc2ncnc(NC3(C)CC3)c2c1C(=O)NCc1nccc(C(F)F)n1 [Example 707, N-{[4-(Difluoromethyl)pyrimidin-2-yl]methyl}-6-methyl-4-[(1-methylcyclopropyl)amino]furo[2,3-d]pyrimidine-5-carboxamide] and Cc1oc2ncnc(NC3(C)CC3)c2c1C(=O)NCc1nccc(C(F)(F)F)n1 [Example 680, 6-Methyl-4-[(1-methylcyclopropyl)amino]-N-{[4-(trifluoromethyl)pyrimidin-2-yl]methyl}furo[2,3-d]pyrimidine-5-carboxamide] fall in the same range of IC50: 10 to 100 nM for the first, 10 to 100 nM for the second.

Cc1oc2ncnc(NC3(C)CC3)c2c1C(=O)N1CCOC(c2ccccn2)C1 (stereo not shown) [Example 118, 6-Methyl-N-(1-methylcyclopropyl)-5-[2-(pyridin-2-yl)morpholine-4-carbonyl]furo[2,3-d]pyrimidin-4-amine] and Cc1oc2ncnc(NC3(C)CC3)c2c1C(=O)N1CCN(c2ccnc(F)n2)CC1 [Example 162, 5-[4-(2-Fluoropyrimidin-4-yl)piperazine-1-carbonyl]-6-methyl-N-(1-methylcyclopropyl)furo[2,3-d]pyrimidin-4-amine] fall in the same range of IC50: 10 to 100 nM for the first, 10 to 100 nM for the second.

Compared with Cc1oc2ncnc(NC3(C)CC3)c2c1C(=O)NC1CCN(c2cnccn2)CC1 [Example 660, 6-Methyl-4-[(1-methylcyclopropyl)amino]-N-[1-(pyrazin-2-yl)piperidin-4-yl]furo[2,3-d]pyrimidine-5-carboxamide], Cc1oc2ncnc(NC3(C)CC3)c2c1C(=O)NC1COC1 [Example 83, 6-Methyl-4-[(1-methylcyclopropyl)amino]-N-(oxetan-3-yl)furo[2,3-d]pyrimidine-5-carboxamide] is higher in IC50: 10 to 100 nM for the first, 100 to 1000 nM for the second.

First: Cc1oc2ncnc(NC3(C)CC3)c2c1C(=O)Nc1ccc(C2CCOCC2)cc1 [Example 721, 6-Methyl-4-[(1-methylcyclopropyl)amino]-N-[4-(oxan-4-yl)phenyl]furo[2,3-d]pyrimidine-5-carboxamide]
Second: CCC1(NC(=O)c2c(C)oc3ncnc(NC4(C)CC4)c23)CCOCC1 [Example 140, N-(4-Ethyloxan-4-yl)-6-methyl-4-[(1-methylcyclopropyl)amino]furo[2,3-d]pyrimidine-5-carboxamide]
The IC50 of the first is higher: 100 to 1000 nM for the first, 10 to 100 nM for the second.

COc1nc(C)nc2c1CN(C(=O)c1c(C)oc3ncnc(NC4(C)CC4)c13)CC2 [Example 712, 5-{4-Methoxy-2-methyl-5H,6H,7H,8H-pyrido[4,3-d]pyrimidine-6-carbonyl}-6-methyl-N-(1-methylcyclopropyl)furo[2,3-d]pyrimidin-4-amine] and COc1ncnc2c1CCN(C(=O)c1c(C)oc3ncnc(NC4(C)CC4)c13)C2 [Example 4, (4-Methoxy-5,8-dihydropyrido[3,4-d]pyrimidin-7(6H)-yl)(6-methyl-4-((1-methylcyclopropyl)amino)furo[2,3-d]pyrimidin-5-yl)methanone] fall in the same range of IC50: 10 to 100 nM for the first, 10 to 100 nM for the second.

COc1ccc(CCNC(=O)c2c(C)oc3ncnc(NC4(C)CC4)c23)cc1OC [Example 545, N-[2-(3,4-Dimethoxyphenyl)ethyl]-6-methyl-4-[(1-methylcyclopropyl)amino]furo[2,3-d]pyrimidine-5-carboxamide] and COc1cccc(CNC(=O)c2c(C)oc3ncnc(NC4(C)CC4)c23)n1 [Example 53, N-[(6-Methoxypyridin-2-yl)methyl]-6-methyl-4-[(1-methylcyclopropyl)amino]furo[2,3-d]pyrimidine-5-carboxamide] fall in the same range of IC50: 10 to 100 nM for the first, 10 to 100 nM for the second.

Compared with Cc1cncc(NC(=O)c2c(C)oc3ncnc(NC4(C)CC4)c23)n1 [Example 437, 6-Methyl-4-[(1-methylcyclopropyl)amino]-N-(6-methylpyrazin-2-yl)furo[2,3-d]pyrimidine-5-carboxamide], Cc1cc(CNC(=O)c2c(C)oc3ncnc(NC4(C)CC4)c23)on1 [Example 319, 6-Methyl-N-[(3-methyl-1,2-oxazol-5-yl)methyl]-4-[(1-methylcyclopropyl)amino]furo[2,3-d]pyrimidine-5-carboxamide] is lower in IC50: 100 to 1000 nM for the first, 10 to 100 nM for the second.

Cc1oc2ncnc(NC3(C)CC3)c2c1C(=O)NC1(c2ncccn2)CC1 [Example 349, 6-Methyl-4-[(1-methylcyclopropyl)amino]-N-[1-(pyrimidin-2-yl)cyclopropyl]furo[2,3-d]pyrimidine-5-carboxamide] and Cc1oc2ncnc(NC3(C)CC3)c2c1C(=O)Nc1cnn(-c2ncccc2F)c1 [Example 447, N-[1-(3-Fluoropyridin-2-yl)-1H-pyrazol-4-yl]-6-methyl-4-[(1-methylcyclopropyl)amino]furo[2,3-d]pyrimidine-5-carboxamide] fall in the same range of IC50: 10 to 100 nM for the first, 10 to 100 nM for the second.

Cc1oc2ncnc(NC3(C)CC3)c2c1C(=O)N(C)Cc1ccsc1 [Example 223, N,6-Dimethyl-4-[(1-methylcyclopropyl)amino]-N-(thiophen-3-ylmethyl)furo[2,3-d]pyrimidine-5-carboxamide] and Cc1oc2ncnc(NC3(C)CC3)c2c1C(=O)NCc1ccc(O)cn1 [Example 10, N-[(5-Hydroxypyridin-2-yl)methyl]-6-methyl-4-[(1-methylcyclopropyl)amino]furo[2,3-d]pyrimidin-5-carboxamide] fall in the same range of IC50: 10 to 100 nM for the first, 10 to 100 nM for the second.

Cc1oc2ncnc(NC3(C)CC3)c2c1C(=O)NCc1ccc(Cl)cc1F [Example 534, N-[(4-Chloro-2-fluorophenyl)methyl]-6-methyl-4-[(1-methylcyclopropyl)amino]furo[2,3-d]pyrimidine-5-carboxamide] and Cc1oc2ncnc(NC3(C)CC3)c2c1C(=O)NCc1ccccc1 [Example 177, N-Benzyl-6-methyl-4-[(1-methylcyclopropyl)amino]furo[2,3-d]pyrimidine-5-carboxamide] fall in the same range of IC50: 10 to 100 nM for the first, 10 to 100 nM for the second.

Cc1oc2ncnc(NC3(C)CC3)c2c1C(=O)N1CCN(c2cc(F)ncn2)CC1 [Example 161, 5-[4-(6-Fluoropyrimidin-4-yl)piperazine-1-carbonyl]-6-methyl-N-(1-methylcyclopropyl)furo[2,3-d]pyrimidin-4-amine] and Cc1oc2ncnc(NC3(C)CC3)c2c1C(=O)NCCCn1ccnc1 [Example 220, N-[3-(1H-Imidazol-1-yl)propyl]-6-methyl-4-[(1-methylcyclopropyl)amino]furo[2,3-d]pyrimidine-5-carboxamide] fall in the same range of IC50: 10 to 100 nM for the first, 10 to 100 nM for the second.

In the case of CCC(CC)NC(=O)c1c(C)oc2ncnc(NC3(C)CC3)c12 [Example 169, 6-Methyl-4-[(1-methylcyclopropyl)amino]-N-(pentan-3-yl)furo[2,3-d]pyrimidine-5-carboxamide], the IC50 is reported as 10 to 100 nM.
